This note sets out measurements from US7981926B2, “Fluorotaxoids” (Research Foundation of State University of New York, priority 2005, dated 2011).

Structures are written as SMILES. Read-outs that look alike come from different tables or passages of the source.

In one experiment the test system is MCF7 (mammary carcinoma). Put plainly: Tumor growth inhibitory activity (cytotoxicity), SRB method of Skehan et al, MCF7. Format: cell-based, human. To be noted: read-out: IC50 MCF7 (breast). The text has this: (§1) The results were obtained according to the methods of Skehan et al (See Skehan et al., J. Nat. Cancer Inst., 82, 1107 (1990)), as more fully described in the Examples. The resistance factor (R/S) shown in the table is a measure of the degree of resistance of a cell line against a taxoid compound. The resistance factor is a ratio of the cytoxicity of a taxoid compound against a drug-resistant cell line (R) as compared to its cytoxicity against a drug-sensitive cell line (S).
(§2) In the tables, lower numbers indicate higher potency (or greater activity). Paclitaxel was used as the standard for comparison. The data represent the mean values of at least three separate experiments.
(§3) Assessment of cell growth inhibition was determined according to the methods of Skehan et al (See Skehan et al., J. Nat. Cancer Inst., 82, 1107 (1990)). Briefly, cells were plated between 400 and 1200 cells/well in 96 well plates and incubated at 37° C. for 15-18 h prior to drug addition to allow attachment of cells. Compounds tested were solubilized in 100% DMSO and further diluted in RPMI-1640 containing 10 mM HEPES. Each cell line was treated with 10 concentrations of compounds (5 log range). After a 72 h incubation, 100 μL of ice-cold 50% TCA was added to each well and incubated for 1 h at 4° C. Plates were then washed 5 times with tap water to remove TCA, low-molecular-weight metabolites and serum proteins. Sulforhodamine B (SRB) (0.4%, 50 μL) was added to each well. Following a 5 minute incubation at room temperature, plates were rinsed 5 times with 0.1% acetic acid and air dried. Bound dye was solubilized with 10 mM Tris Base (pH 10.5) for 5 min on a gyratory shaker. Optical density was measured at 570 nm.
(§4) Data were fit with the Sigmoid-Emax concentration-effect model with non-linear regression, weighted by the reciprocal of the square of the predicted response (see Holford, N. H. G.; Scheiner, L. B., “Understanding the dose-effect relationship: Clinical applications of pharmaco-kinetic-pharmacodynamic models,” Clin. Pharmacokin., 6, 429-453 (1981)). The fitting software was developed by the Roswell Park Cancer Institute with Microsoft FORTRAN, and uses the Marquardt algorithm (see Marquardt, D. W., “An algorithm for least squares estimation of nonlinear parameters,” J. Soc. Ind. Appl. Math., 11, 431-441 (1963)) as adopted by Nash for the non-linear regression (see Nash, J. C., “Compact numerical method for computers: Linear algebra and function minimization,” John Wiley & Sons, New York, 1979).

Experiment [1] has as its system MCF7-R (mammary carcinoma cells 250-fold resistant to paclitaxel). Put plainly: Tumor growth inhibitory activity (cytotoxicity), SRB method of Skehan et al, MCF7-R. It counts as cell-based, human. To be noted: for IC50: read-out: IC50 MCF7-R (breast); for R/S (resistance factor): ratio of cytotoxicity against drug-resistant MCF7-R (R) to drug-sensitive MCF7 (S).
Source text: as §1, §2, §3, §4

The mark [2] stands for this setting: 72 h drug exposure, SRB, mean of at least three separate experiments.
Setting [3] is: drug-resistant cell line, 72 h drug exposure, SRB, mean of at least three separate experiments.
Setting [4] is: Homo sapiens, MCF7, 72 h drug exposure, SRB, mean of at least three separate experiments.
The mark [5] stands for this setting: Homo sapiens, MCF7R, drug-resistant cell line, 72 h drug exposure, SRB, mean of at least three separate experiments.

In the case of `CC(=O)OC12COC1CC(O)C1(C)C(=O)C(OC(=O)C3CC3)C3=C(C)C(OC(=O)C(O)C(C=C(F)F)NC(=O)OC(C)(C)C)CC(O)(C(OC(=O)c4cccc(F)c4)C21)C3(C)C` (stereo not drawn) [SB-T-12852-2, 3′-Dephenyl-3′-(2,2-difluorovinyl)-2-debenzoyl-2-(3-fluorobenzoyl)-10-cyclopropanecarbonyldocetaxel], the IC50 in the experiment on MCF7 (mammary carcinoma) (setting [2]) amounted to 76 pM; in experiment [1] (setting [3]), 1720 pM. In experiment [1], the “R/S (resistance factor)” value was 23.
With `CCC(=O)O[C@H]1C(=O)[C@@]2(C)C([C@H](OC(=O)c3cccc(F)c3)[C@]3(O)C[C@H](OC(=O)[C@H](O)[C@H](C=C(F)F)NC(=O)OC(C)(C)C)C(C)=C1C3(C)C)[C@]1(OC(C)=O)CO[C@@H]1C[C@@H]2O` (stereo partly drawn) [SB-T-12853-2, 3′-Dephenyl-3′-(2,2-difluorovinyl)-2-debenzoyl-2-(3-fluorobenzoyl)-10-propanoyldocetaxel], the IC50 was found to be 230 pM in the experiment on MCF7 (mammary carcinoma) (setting [4]) and 2540 pM in experiment [1] (setting [5]). Further, the “R/S (resistance factor)” value in experiment [1] amounted to 11.
For `CC(=O)OC12COC1CC(O)C1(C)C(=O)C(OC(=O)C3CC3)C3=C(C)C(OC(=O)C(O)C(C=C(F)F)NC(=O)OC(C)(C)C)CC(O)(C(OC(=O)c4cccc(Cl)c4)C21)C3(C)C` (stereo not drawn) [SB-T-12852-4, 3′-Dephenyl-3′-(2,2-difluorovinyl)-2-debenzoyl-2-(3-chlorobenzoyl)-10-cyclopropanecarbonyldocetaxel], the half-inhibitory concentration (IC50) was 120 pM in the experiment on MCF7 (mammary carcinoma) (setting [2]) and 500 pM in experiment [1] (setting [3]). In addition, the “R/S (resistance factor)” value in experiment [1] was 4.2.
In the case of `CC(=O)O[C@H]1C(=O)[C@@]2(C)C([C@H](OC(=O)c3cccc(N=[N+]=[N-])c3)[C@]3(O)C[C@H](OC(=O)[C@H](O)[C@H](C=C(F)F)NC(=O)OC(C)(C)C)C(C)=C1C3(C)C)[C@]1(OC(C)=O)CO[C@@H]1C[C@@H]2O` (stereo partly drawn) [SB-T-12851-3, 3′-Dephenyl-3′-(2,2-difluorovinyl)-2-debenzoyl-2-(3-azidobenzoyl)-10-acetyldocetaxel], the concentration for half-maximal inhibition (IC50) in the experiment on MCF7 (mammary carcinoma) (setting [4]) was 92 pM; in experiment [1] (setting [5]) it was 340 pM. Also, in experiment [1], the “R/S (resistance factor)” value is reported as 3.7.
With `COc1cccc(C(=O)O[C@H]2C3[C@](C)(C(=O)[C@H](OC(=O)N(C)C)C4=C(C)[C@@H](OC(=O)[C@H](O)[C@H](C=C(F)F)NC(=O)OC(C)(C)C)C[C@]2(O)C4(C)C)[C@@H](O)C[C@H]2OC[C@@]32OC(C)=O)c1` (stereo partly drawn) [SB-T-12854-1, 3′-dephenyl-3′-(2,2-difluorovinyl)-2-debenzoyl-2-(3-methoxybenzoyl)-10-dimethylcarbamate-docetaxel], the IC50 in the experiment with MCF7 (mammary carcinoma) (Homo sapiens, MCF7, 72 h) came out at 110 pM; in experiment [1] (Homo sapiens, MCF7R, 72 h) it was 960 pM. Besides, the “R/S (resistance factor)” value in experiment [1] is recorded as 8.7.
With `COC(=O)O[C@H]1C(=O)[C@@]2(C)C([C@H](OC(=O)c3cccc(F)c3)[C@]3(O)C[C@H](OC(=O)[C@H](O)[C@H](C=C(F)F)NC(=O)OC(C)(C)C)C(C)=C1C3(C)C)[C@]1(OC(C)=O)CO[C@@H]1C[C@@H]2O` (stereo partly drawn) [SB-T-12855-2, 3′-Dephenyl-3′-(2,2-difluorovinyl)-2-debenzoyl-2-(3-fluorobenzoyl)-10-methoxycarbonyldocetaxel], the 50% inhibitory concentration (IC50) in the experiment on MCF7 (mammary carcinoma) (setting [4]) turned out to be 120 pM; in experiment [1] (setting [5]) it was 1850 pM. Also, the “R/S (resistance factor)” value in experiment [1] is reported as 11.
In the same order, the values of `COc1cccc(C(=O)O[C@H]2C3[C@](C)(C(=O)[C@H](OC(C)=O)C4=C(C)[C@@H](OC(=O)[C@H](O)[C@H](C=C(F)F)NC(=O)OC(C)(C)C)C[C@]2(O)C4(C)C)[C@@H](O)C[C@H]2OC[C@@]32OC(C)=O)c1` (stereo partly drawn) [SB-T-12851-1, 3′-Dephenyl-3′-(2,2-difluorovinyl)-2-debenzoyl-2-(3-methoxybenzoyl)-10-acetyldocetaxel] are 250 pM, 1500 pM and 6.0.
For `CC(=O)O[C@@]12CO[C@@H]1C[C@H](O)[C@@]1(C)C(=O)[C@H](OC(=O)N(C)C)C3=C(C)[C@@H](OC(=O)[C@H](O)[C@H](C=C(F)F)NC(=O)OC(C)(C)C)C[C@@](O)([C@@H](OC(=O)c4cccc(N=[N+]=[N-])c4)C12)C3(C)C` (stereo partly drawn) [SB-T-12854-3, 3′-Dephenyl-3′-(2,2-difluorovinyl)-2-debenzoyl-2-(3-azidobenzoyl)-10-dimethylcarbamoyldocetaxel], the half-maximal inhibitory concentration (IC50) in the experiment on MCF7 (mammary carcinoma) (Homo sapiens, MCF7, 72 h) was determined as 130 pM; in experiment [1] (Homo sapiens, MCF7R, 72 h) it was 450 pM. The “R/S (resistance factor)” value in experiment [1] is 3.7.
As for `COc1cccc(C(=O)O[C@H]2[C@@H]3[C@]4(OC(C)=O)CO[C@@H]4C[C@H](O)[C@@]3(C)C(=O)[C@H](OC(=O)C3CC3)C3=C(C)[C@@H](OC(=O)[C@H](O)[C@H](C=C(F)F)NC(=O)OC(C)(C)C)C[C@]2(O)C3(C)C)c1` [SB-T-12852-1, 3′-Dephenyl-3′-(2,2-difluorovinyl)-2-debenzoyl-2-(3-methoxybenzoyl)-10-cyclopropanecarbonyldocetaxel], the values for the IC50 (in the experiment with MCF7 (mammary carcinoma) (setting [2]); in experiment [1] (setting [3])) were 92 pM and 480 pM, respectively. For the same compound, the “R/S (resistance factor)” value in experiment [1] came out at 5.2.
As for `COC(=O)O[C@H]1C(=O)[C@@]2(C)C([C@H](OC(=O)c3cccc(N=[N+]=[N-])c3)[C@]3(O)C[C@H](OC(=O)[C@H](O)[C@H](C=C(F)F)NC(=O)OC(C)(C)C)C(C)=C1C3(C)C)[C@]1(OC(C)=O)CO[C@@H]1C[C@@H]2O` (stereo partly drawn) [SB-T-12855-3, 3′-Dephenyl-3′-(2,2-difluorovinyl)-2-debenzoyl-2-(3-azidobenzoyl)-10-methoxycarbonyldocetaxel], the IC50 in the experiment on MCF7 (mammary carcinoma) (setting [4]) came out at 76 pM; in experiment [1] (setting [5]) it was 400 pM. Moreover, the “R/S (resistance factor)” value in experiment [1] is given as 5.3.
Regarding `CC(=O)O[C@@]12CO[C@@H]1C[C@H](O)[C@@]1(C)C(=O)[C@H](OC(=O)C3CC3)C3=C(C)[C@@H](OC(=O)[C@H](O)[C@H](C=C(F)F)NC(=O)OC(C)(C)C)C[C@@](O)([C@@H](OC(=O)c4cccc(N=[N+]=[N-])c4)[C@H]21)C3(C)C` [SB-T-12852-3, 3′-Dephenyl-3′-(2,2-difluorovinyl)-2-debenzoyl-2-(3-azidobenzoyl)-10-cyclopropanecarbonyldocetaxel], the figures for the IC50 (in the experiment with MCF7 (mammary carcinoma) (setting [2]); in experiment [1] (setting [3])) were 92 pM and 450 pM, respectively. For the same compound, the “R/S (resistance factor)” value in experiment [1] is listed as 4.9.
As to `CC(=O)O[C@@]12CO[C@@H]1C[C@H](O)[C@@]1(C)C(=O)[C@H](OC(=O)N(C)C)C3=C(C)[C@@H](OC(=O)[C@H](O)[C@H](C=C(F)F)NC(=O)OC(C)(C)C)C[C@@](O)([C@@H](OC(=O)c4cccc(Cl)c4)C12)C3(C)C` (stereo partly drawn) [SB-T-12854-4, 3′-Dephenyl-3′-(2,2-difluorovinyl)-2-debenzoyl-2-(3-chlorobenzoyl)-10-dimethylcarbamoyldocetaxel], the IC50 with MCF7 (mammary carcinoma) (Homo sapiens, MCF7, 72 h) was determined as 930 pM; in experiment [1] (Homo sapiens, MCF7R, 72 h) it was 2600 pM. For the same compound, the “R/S (resistance factor)” value in experiment [1] was determined as 2.8.
On to `COC(=O)O[C@H]1C(=O)[C@@]2(C)C([C@H](OC(=O)c3cccc(OC)c3)[C@]3(O)C[C@H](OC(=O)[C@H](O)[C@H](C=C(F)F)NC(=O)OC(C)(C)C)C(C)=C1C3(C)C)[C@]1(OC(C)=O)CO[C@@H]1C[C@@H]2O` (stereo partly drawn) [SB-T-12855-1, 3′-Dephenyl-3′-(2,2-difluorovinyl)-2-debenzoyl-2-(3-methoxybenzoyl)-10-methoxycarbonyldocetaxel], for which the half-inhibitory concentration (IC50) came out at 78 pM in the experiment on MCF7 (mammary carcinoma) (setting [4]) and 500 pM in experiment [1] (setting [5]). Further, the “R/S (resistance factor)” value in experiment [1] is on record as 6.4.
Turning to `CC(=O)O[C@@]12CO[C@@H]1C[C@H](O)[C@@]1(C)C(=O)[C@H](OC(=O)C3CC3)C3=C(C)[C@@H](OC(=O)[C@H](O)[C@H](C=C(F)F)NC(=O)OC(C)(C)C)C[C@@](O)([C@@H](OC(=O)c4ccccc4)[C@H]21)C3(C)C` [SB-T-12852, 3′-dephenyl-3′-(2,2-difluorovinyl)-10-cyclopropanecarbonyl-docetaxel], the concentration for half-maximal inhibition (IC50) turned out to be 120 pM in the experiment with MCF7 (mammary carcinoma) (setting [2]) and 6030 pM in experiment [1] (setting [3]). Besides, the “R/S (resistance factor)” value in experiment [1] is reported as 53.
Take `COC(=O)O[C@H]1C(=O)[C@@]2(C)C([C@H](OC(=O)c3cccc(Cl)c3)[C@]3(O)C[C@H](OC(=O)[C@H](O)[C@H](C=C(F)F)NC(=O)OC(C)(C)C)C(C)=C1C3(C)C)[C@]1(OC(C)=O)CO[C@@H]1C[C@@H]2O` (stereo partly drawn) [SB-T-12855-4, 3′-Dephenyl-3′-(2,2-difluorovinyl)-2-debenzoyl-2-(3-chlorobenzoyl)-10-methoxycarbonyldocetaxel]: the half-maximal inhibitory concentration (IC50) in the experiment on MCF7 (mammary carcinoma) (setting [4]) stood at 99 pM; in experiment [1] (setting [5]), 1150 pM. Further, the “R/S (resistance factor)” value in experiment [1] is given as 12.
